Values joined by “and” are separate entries in the source; they are usually repeats but may differ in a detail not shown here. Equal values may be shown once. Marks after values point to notes of the source that are not given here.
Experiments:
[1] = system: human skin fibroblasts; conditions: more than 1.0 ng/ml of HGF added to cultures media; cited from earlier work
[2] = system: chronic leg ulcers; experiment: Micro-circulatory perfusion in ulcers by laser Doppler (LDPI); format: in vivo, human
Experimental: The micro-circulation within the ulcers was measured using LDPI. The LDPI system (PIMLO, Lisca Development AB, Sweden) utilises the Doppler principle by freely impinging coherent laser light onto the tissue and processing the backscattered, Doppler broadened, light to estimate the tissue perfusion without touching the skin. The perfusion estimate is proportional to the product of the mean velocity and the concentration of the moving blood cells.
(§1) Micro-circulation perfusion in ulcers compared to the intact contiguous skin was determined at the beginning, after one week and after three months (in 7 patients) and ulcer size and characteristics were also documented.

[3] = system: chronic leg ulcers; format: in vivo, human
Experimental: HGF in gel form was applied locally once daily for seven days in 15 of 19 chronic leg ulcers in eleven elderly patients in a pilot study. All patients had previously been treated with conventional methods and their leg ulcers had been in a rather stable condition for between one and fourteen years. Any signs of allergy, discomfort or pain were reported daily.
as §1
In contrast to the patients with unfavourable healing (non-responders) the healing process in the responders began during treatment and continued afterwards. There was a statistically significant correlation (r=0.94, p<0.002) between enhanced micro-circulation and ulcer area reduction in the treated ulcers. Simultaneously antibacterial treatment in the ulcers with signs of infection enhanced the therapy results considerably. […] Micro-circulatory perfusion, which might reflect the angiogenic effect of HGF, was positively correlated to ulcer area reduction. Local treatment by HGF seems to have positive effect on nearby, not locally treated, ulcers indicating systemic effects. […] HGF and representative antibacterial treatment have synergetic effects in treatment of chronic leg ulcers.

[4] = system: spontaneous fungal infections and ulcers; experiment: Mice with spontaneous fungal infections and ulcers, Gentiana violet with or without rhHGF; format: in vivo; conditions: local Gentiana violet once; the HGF mouse also rhHGF 10 ng subcutaneously
Experimental: Two mice (23-25 g) with spontaneous fungal infections and ulcers on their backs were shaved and treated locally with Gentiana violet once. One of them was simultaneously treated with hepatocyte growth factor (rhHGF) 10 ng subcutaneously. The hair growth was fine as in the other places of body, in the mouse that received HGF and fungicidal treatment. […] This example confirms the morphogenic effects of HGF in recovering after treated infectious injuries (see FIG. 7).

[5] = system: normal hairless skin in mice; experiment: Local rhHGF on shaved normal hairless skin in mice, hair growth; format: in vivo
Experimental: Eighteen black mice (14-16 weeks old and 21-29 g weight) were shaved on their back, causing two 1×1 cm patches on the right and left side. They were then divided into 3 groups. Group I (n=6, females), Group 2 (n=6 males) and Group 3 (n=6, 3 males and 3 females). Group 1 were treated locally on the right side by 0.70 μg/kg (12-18 ng/cm^2 hairless skin) recombinant human hepatocyte growth factor (rhHGF) daily in 10 days. In order to prepare HGF preparations, recombinant human HGF (rhHGF) was provided commercially from R&D systems Inc., Minneapolis, USA. Group 2 (n=6 males) received 0.35 μg/kg/day (5-10 ng/cm^2 hairless skin) on the right side in 10 days. Group 3, non-treated, served as the control group. […] Although some significant differences were not obviously seen in the hair growth under treatment we were surprised to see that the animals in Group 1 did show a full double-sided hair growth in 5 animals 2 days after the treatment was ended (day 12). The same process in Group 2 and group 3 did take much a longer time (day 20 and day 21, respectively).

[6] = system: CCL-53.1; experiment: Restitution of scraped confluent monolayer; format: cell-based
Experimental: The confluent monolayer of CCL-53.1 was scraped off, forming long wounds. The area not covered by cells finally disappeared, and restitution (in control medium with 15% horse serum and 2.5 % FBS) was completed at 72 h. The addition of HGF together with the addition of antibiotic agent (streptomycin and penicillin) to the culture medium improved the restitution of the damaged area more rapidly than the control medium (10 times at 24 h) as well as to a medium including HGF without added antibiotic agents.

[7] = contiguous non-treated ulcer in a locally treated patient, up to three months

Compound: HGF: recombinant human HGF (rhHGF) provided commercially from R&D systems Inc., Minneapolis, USA
- DNA synthesis [1]: doubled
- Circ (NT) ratio, mean ([2]; non-treated ulcers): 0.9/ND ratio
- Circ (NT) ratio, median ([2]; non-treated ulcers): 0.9/ND ratio
- Circ (T) ratio, mean ([2]; treated ulcers): 1.12 ratio
- Circ (T) ratio, median ([2]; treated ulcers): 1.23 ratio
- Circ (T) ratio: relative change in local microcirculation ([2]; treated ulcers, before treatment vs one week later, one line per patient): 1.29 ratio and 1.23 ratio and 1.28 ratio and 0.77 ratio and 0.72 ratio and 0.97 ratio and 1.48 ratio
- Heal % (T), median ([3]; 11 patients): 84%
- Heal % (NT), first listed non-treated ulcer [3, 7]: 100/100% and 100%
- Heal % (NT), second listed non-treated ulcer [3, 7]: 100/100% and 92%
- Signs of allergy or malignancy ([3]; human, in vivo): No signs of allergy or malignancy were observed
- Patients with complete or partial healing ([3]; local HGF treatment, ulcers incurable for up to fourteen years): 8/11
- Cases with complete cure of ulcers ([3]; local HGF with appropriate oral antibiotics at the same time): at least 4 cases
- Heal % (NT), mean, first listed ulcer ([3]; non-treated ulcers): 100%
- Heal % (NT), mean, second listed ulcer ([3]; non-treated ulcers): 96%
- Heal % (NT), median, first listed ulcer ([3]; non-treated ulcers): 100%
- Heal % (NT), median, second listed ulcer ([3]; non-treated ulcers): 96%
- Course of ulcer after superinfection with resistant bacteria ([3]; one patient with venous insufficiency, no appropriate antibiotics (penicillin allergy)): the ulcer increased dramatically in size
- Heal % (T), the two ulcers of patient 7 with different healing ([3]; patient 7): (59-88%)♦
- Heal % (T), mean ([3]; sum of total area reduction divided by sum of total area, 11 patients): 78* %
- Ulcers with favourable healing (58-59%) ([3]; treated ulcers): two
- Ulcers with excellent healing (84-99%) ([3]; treated ulcers, in four patients): four
- Ulcers with complete healing (100% area reduction) ([3]; treated ulcers, in three patients): 5/15
- Ulcers with minimal improvement (25-30%) or relapse ([3]; treated ulcers, three patients): four
- Healing of the four contiguous non-treated ulcers ([3]; two patients): three healed completely and one excellent
- Quality of hair growth [4]: fine
- Signs of non-tolerance or diseases under or after treatment ([5]; 0.70 or 0.35 μg/kg/day locally, 10 days): None of the treated animals did show any sign of non-tolerance or diseases
- Day of full double-sided hair growth ([5]; Group 1: 0.70 μg/kg locally daily in 10 days, in 5 animals): 12 days
- Day of full double-sided hair growth ([5]; Group 2: 0.35 μg/kg/day locally in 10 days): 20 days
- Local dose that accelerates hair growth ([5]; normal hairless skin in mice): not less than 0.7 μg/kg
- Restitution of the damaged area relative to control medium ([6]; HGF together with streptomycin and penicillin in the culture medium, at 24 h): 10 times
- HGF concentration at which the effect is detectable ([6]; dose-dependent effect): ≥ 5 ng/mL

Compound: CN(C)c1ccc(C(=C2C=CC(=[N+](C)C)C=C2)c2ccc(N(C)C)cc2)cc1.[Cl-] [Gentiana violet, reference compound]
- Quality of hair growth [4]: rough and irregular

Source: patent US7601365B2, “Synergetic effects of HGF and antibacterial treatment” (Damavand Wound, AB, priority 2000, dated 2009)
